From paper PMC5218480 (PLoS ONE, 2017)

Tested on: MV-4-11 cells
Assay: Gene expression microarray analysis (Affymetrix PrimeView) and GSEA
Type: cell-based, human
Design: RFU PODN (11730768_x_at) / Fold change /veh PODN (11730768_x_at) / RFU LINC00158 (11744669_a_at) / Fold change /veh LINC00158 (11744669_a_at) / RFU DUSP10 (11751237_a_at) / Fold change /veh DUSP10 (11751237_a_at) / RFU ID3 (11757404_x_at) / Fold change /veh ID3 (11757404_x_at) / RFU PLEKHG5 (11737974_s_at) / Fold change /veh PLEKHG5 (11737974_s_at) / RFU LRRC4B (11730491_at) / Fold change /veh LRRC4B (11730491_at) / RFU GIMAP4 (11747438_a_at) / Fold change /veh GIMAP4 (11747438_a_at) / RFU KRT8 (11758183_x_at) / Fold change /veh KRT8 (11758183_x_at) / RFU CNN1 (11734310_a_at) / Fold change /veh CNN1 (11734310_a_at) / RFU VPS37D (11726825_at) / Fold change /veh VPS37D (11726825_at) / RFU C10orf10 (11716522_x_at) / Fold change /veh C10orf10 (11716522_x_at) / RFU KIR2DL2 /// KIR2DL4 /// KIR2DL5A /// KIR2DL5B /// KIR2DS1 /// KIR2DS2 /// KIR2DS3 /// KIR2DS4 /// KIR3DL3 /// KIR3DL3 /// KIR3DS1 (11738374_at) / Fold change /veh KIR2DL2 /// KIR2DL4 /// KIR2DL5A /// KIR2DL5B /// KIR2DS1 /// KIR2DS2 /// KIR2DS3 /// KIR2DS4 /// KIR3DL3 /// KIR3DL3 /// KIR3DS1 (11738374_at) / RFU C1QL1 (11718748_at) / Fold change /veh C1QL1 (11718748_at) / RFU TMPRSS4 (11747572_a_at) / Fold change /veh TMPRSS4 (11747572_a_at) / RFU HAMP (11756126_x_at) / Fold change /veh HAMP (11756126_x_at) / RFU RNFT2 (11725882_a_at) / Fold change /veh RNFT2 (11725882_a_at) / RFU NR4A2 (11747474_a_at) / Fold change /veh NR4A2 (11747474_a_at) / RFU ABCC12 (11746883_a_at) / Fold change /veh ABCC12 (11746883_a_at) / RFU TMEM136 (11760407_x_at) / Fold change /veh TMEM136 (11760407_x_at) / RFU CLDN22 /// WWC2 (11732394_at) / Fold change /veh CLDN22 /// WWC2 (11732394_at) / RFU HLA-DPB1 (11760878_x_at) / Fold change /veh HLA-DPB1 (11760878_x_at) / RFU SPINT1 (11716480_a_at) / Fold change /veh SPINT1 (11716480_a_at) / RFU GAP43 (11754022_s_at) / Fold change /veh GAP43 (11754022_s_at) / RFU A4GNT (11735810_at) / Fold change /veh A4GNT (11735810_at) / RFU PRB3 (11715151_x_at) / Fold change /veh PRB3 (11715151_x_at) / RFU TUBB4B (11761932_at) / Fold change /veh TUBB4B (11761932_at) / RFU CAPN14 (11732068_a_at) / Fold change /veh CAPN14 (11732068_a_at) / RFU TMCC2 (11721928_a_at) / Fold change /veh TMCC2 (11721928_a_at) / RFU IRGQ (11745062_a_at) / Fold change /veh IRGQ (11745062_a_at) / RFU FAM174B (11720279_a_at) / Fold change /veh FAM174B (11720279_a_at) / RFU TMPRSS4 (11748680_a_at) / Fold change /veh TMPRSS4 (11748680_a_at) / RFU FAM212B (11763350_a_at) / Fold change /veh FAM212B (11763350_a_at) / RFU PLEKHG5 (11743358_a_at) / Fold change /veh PLEKHG5 (11743358_a_at) / RFU ZSCAN30 (11745921_a_at) / Fold change /veh ZSCAN30 (11745921_a_at) / RFU CMKLR1 (11741424_a_at) / Fold change /veh CMKLR1 (11741424_a_at) / RFU LOC101060620 /// MAPK8IP1 (11723275_at) / Fold change /veh LOC101060620 /// MAPK8IP1 (11723275_at) / RFU SPTSSB (11747773_x_at) / Fold change /veh SPTSSB (11747773_x_at) / RFU PRSS12 (11739890_at) / Fold change /veh PRSS12 (11739890_at) / RFU BIN1 (11741810_x_at) / Fold change /veh BIN1 (11741810_x_at) / RFU WNT11 (11732464_a_at) / Fold change /veh WNT11 (11732464_a_at) / RFU C10orf10 (11716521_a_at) / Fold change /veh C10orf10 (11716521_a_at) / RFU C5orf56 (11738089_at) / Fold change /veh C5orf56 (11738089_at) / RFU CYB561 (11721691_x_at) / Fold change /veh CYB561 (11721691_x_at) / RFU ANKRD19P (11752326_a_at) / Fold change /veh ANKRD19P (11752326_a_at) / RFU OR2T12 /// OR2T33 /// OR2T8 (11738714_s_at) / Fold change /veh OR2T12 /// OR2T33 /// OR2T8 (11738714_s_at) / RFU VCAN (11748164_a_at) / Fold change /veh VCAN (11748164_a_at) / RFU JSRP1 (11732532_at) / Fold change /veh JSRP1 (11732532_at) / RFU KRTAP10-11 (11738290_x_at) / Fold change /veh KRTAP10-11 (11738290_x_at) / RFU MYO3A (11730013_a_at) / Fold change /veh MYO3A (11730013_a_at) / RFU EBF3 (11725865_a_at) / Fold change /veh EBF3 (11725865_a_at) / RFU CAMK2N1 (11719241_x_at) / Fold change /veh CAMK2N1 (11719241_x_at) / RFU C5orf56 (11738088_a_at) / Fold change /veh C5orf56 (11738088_a_at) / RFU OLFML3 (11715873_a_at) / Fold change /veh OLFML3 (11715873_a_at) / RFU LOC100653217 /// NTM (11731650_a_at) / Fold change /veh LOC100653217 /// NTM (11731650_a_at) / RFU MAPK11 (11762145_a_at) / Fold change /veh MAPK11 (11762145_a_at) / RFU FIZ1 (11724087_x_at) / Fold change /veh FIZ1 (11724087_x_at) / RFU OASL (11726364_x_at) / Fold change /veh OASL (11726364_x_at) / RFU SOX15 (11748057_x_at) / Fold change /veh SOX15 (11748057_x_at) / RFU CD79A (11719716_a_at) / Fold change /veh CD79A (11719716_a_at) / RFU HIST1H1D (11736915_at) / Fold change /veh HIST1H1D (11736915_at) / RFU CASKIN2 (11723855_a_at) / Fold change /veh CASKIN2 (11723855_a_at) / RFU LOC730098 (11760151_x_at) / Fold change /veh LOC730098 (11760151_x_at) / RFU OR4N2 (11742367_at) / Fold change /veh OR4N2 (11742367_at) / RFU PRRT2 (11749266_a_at) / Fold change /veh PRRT2 (11749266_a_at) / RFU SNX32 (11753110_a_at) / Fold change /veh SNX32 (11753110_a_at) / RFU CDHR5 (11726645_a_at) / Fold change /veh CDHR5 (11726645_a_at) / RFU RCAN1 (11760418_a_at) / Fold change /veh RCAN1 (11760418_a_at) / RFU FAM167A (11723789_a_at) / Fold change /veh FAM167A (11723789_a_at) / RFU FAM26E (11764081_at) / Fold change /veh FAM26E (11764081_at) / RFU ISYNA1 (11749810_s_at) / Fold change /veh ISYNA1 (11749810_s_at) / RFU ACY1 (11761880_at) / Fold change /veh ACY1 (11761880_at) / RFU 11764098_at / Fold change /veh 11764098_at / RFU SAMD14 (11745864_x_at) / Fold change /veh SAMD14 (11745864_x_at) / RFU NPB (11741838_a_at) / Fold change /veh NPB (11741838_a_at) / RFU TMPRSS6 (11731388_a_at) / Fold change /veh TMPRSS6 (11731388_a_at) / RFU KRTAP10-2 (11738614_at) / Fold change /veh KRTAP10-2 (11738614_at) / RFU ARHGAP8 /// PRR5-ARHGAP8 (11727945_x_at) / Fold change /veh ARHGAP8 /// PRR5-ARHGAP8 (11727945_x_at) / RFU KRTAP5-7 /// NADSYN1 (11734609_at) / Fold change /veh KRTAP5-7 /// NADSYN1 (11734609_at) / RFU RASL12 (11751679_a_at) / Fold change /veh RASL12 (11751679_a_at) / RFU CDKN2B (11736163_a_at) / Fold change /veh CDKN2B (11736163_a_at) / RFU PRF1 (11729649_at) / Fold change /veh PRF1 (11729649_at) / RFU, ZNF638 /// ZNF638-IT1 / Fold change vs veh, ZNF638 /// ZNF638-IT1 / RFU, PANK3 / Fold change vs veh, PANK3 / RFU, SH3YL1 / Fold change vs veh, SH3YL1 / RFU, ZEB2 / Fold change vs veh, ZEB2 / RFU, NRIP1 / Fold change vs veh, NRIP1 / RFU, PTTG1IP / Fold change vs veh, PTTG1IP / RFU, CAPN2 / Fold change vs veh, CAPN2 / RFU, MED14 / Fold change vs veh, MED14 / RFU, SNORA58 / Fold change vs veh, SNORA58 / RFU, C1orf63 / Fold change vs veh, C1orf63 / RFU, LRRFIP1 / Fold change vs veh, LRRFIP1 / RFU, NDUFAF7 / Fold change vs veh, NDUFAF7 / RFU, SLC12A2 / Fold change vs veh, SLC12A2 / RFU, IBTK / Fold change vs veh, IBTK / RFU, ESF1 / Fold change vs veh, ESF1 / Fold change vs veh, TMEM50B / RFU, TAOK1 / Fold change vs veh, TAOK1 / RFU, ACBD3 / Fold change vs veh, ACBD3 / RFU, TMA16 / Fold change vs veh, TMA16 / RFU, RWDD3 / Fold change vs veh, RWDD3 / RFU, BCAT1 / Fold change vs veh, BCAT1 / RFU, EDEM3 / Fold change vs veh, EDEM3 / RFU, TMEM33 / Fold change vs veh, TMEM33 / RFU, WDR75 / Fold change vs veh, WDR75 / RFU, AHCTF1 / Fold change vs veh, AHCTF1 / RFU, TFRC / Fold change vs veh, TFRC / RFU, ZDHHC17 / Fold change vs veh, ZDHHC17 / RFU, NOM1 / Fold change vs veh, NOM1 / RFU, ARL8B / Fold change vs veh, ARL8B / RFU, ZBTB11 / Fold change vs veh, ZBTB11 / RFU, TAMM41 / Fold change vs veh, TAMM41 / RFU, KIAA1704 /// LOC100996395 / Fold change vs veh, KIAA1704 /// LOC100996395 / RFU, ING1 / Fold change vs veh, ING1 / RFU, TRMT61B / Fold change vs veh, TRMT61B / RFU, FUBP3 / Fold change vs veh, FUBP3 / RFU, TP53 / Fold change vs veh, TP53 / RFU, TNKS2 / Fold change vs veh, TNKS2 / RFU, ZFP14 / Fold change vs veh, ZFP14 / RFU, ACTR2 / Fold change vs veh, ACTR2 / RFU, PPP3R1 / Fold change vs veh, PPP3R1 / RFU, PIK3R1 / Fold change vs veh, PIK3R1 / RFU, HNRNPA1 / Fold change vs veh, HNRNPA1 / RFU, RNF170 / Fold change vs veh, RNF170 / RFU, ZNF28 / Fold change vs veh, ZNF28 / RFU, RNGTT / Fold change vs veh, RNGTT / RFU, OGT / Fold change vs veh, OGT / RFU, BRD1 / Fold change vs veh, BRD1 / RFU, MARS / Fold change vs veh, MARS / RFU, ZNF655 / Fold change vs veh, ZNF655 / RFU, FAHD1 / Fold change vs veh, FAHD1 / RFU, BDP1 / Fold change vs veh, BDP1 / RFU, LRRCC1 / Fold change vs veh, LRRCC1 / RFU, ARID1A / Fold change vs veh, ARID1A / RFU, ZNF146 / Fold change vs veh, ZNF146 / RFU, ZNF330 / Fold change vs veh, ZNF330 / RFU, GPN3 / Fold change vs veh, GPN3 / RFU, C9orf123 / Fold change vs veh, C9orf123 / RFU, N4BP2L2 / Fold change vs veh, N4BP2L2 / RFU, ARFIP1 / Fold change vs veh, ARFIP1 / RFU, FAM179B / Fold change vs veh, FAM179B / RFU, BCL10 / Fold change vs veh, BCL10 / RFU, UHRF1BP1L / Fold change vs veh, UHRF1BP1L / RFU, BET1 / Fold change vs veh, BET1 / RFU, CNOT2 / Fold change vs veh, CNOT2 / RFU, ZNF268 / Fold change vs veh, ZNF268 / Fold change vs veh, ZNF507 / RFU, DGCR2 / Fold change vs veh, DGCR2 / RFU, WDSUB1 / Fold change vs veh, WDSUB1 / Fold change vs veh, HSP90B1 /// MIR3652 / RFU, ADSS / Fold change vs veh, ADSS / RFU, GK / Fold change vs veh, GK / RFU, ZNF148 / Fold change vs veh, ZNF148 / RFU, TAF9 / Fold change vs veh, TAF9 / RFU, SLC1A5 / Fold change vs veh, SLC1A5 / RFU, SLMO2 / Fold change vs veh, SLMO2 / RFU, ABCC4 / Fold change vs veh, ABCC4 / RFU, LOC101060439 /// RAP1B / Fold change vs veh, LOC101060439 /// RAP1B / RFU, RFX7 / Fold change vs veh, RFX7 / RFU, GTPBP10 / Fold change vs veh, GTPBP10 / RFU, CNEP1R1 / Fold change vs veh, CNEP1R1 / RFU, BIVM-ERCC5 /// ERCC5 / Fold change vs veh, BIVM-ERCC5 /// ERCC5 / RFU, ILF3 / Fold change vs veh, ILF3 / RFU 11762660_at / Fold change /veh 11762660_at / RFU VCAN (11757783_s_at) / Fold change /veh VCAN (11757783_s_at) / RFU DDX43 (11728927_at) / Fold change /veh DDX43 (11728927_at) / RFU KRT8 (11758188_x_at) / Fold change /veh KRT8 (11758188_x_at) / RFU NKD1 (11759106_at) / Fold change /veh NKD1 (11759106_at) / RFU SRD5A1 (11742802_a_at) / Fold change /veh SRD5A1 (11742802_a_at) / RFU TPSAB1 /// TPSB2 (11721975_s_at) / Fold change /veh TPSAB1 /// TPSB2 (11721975_s_at) / RFU GSTM3 (11746129_a_at) / Fold change /veh GSTM3 (11746129_a_at) / RFU IL23R (11737362_x_at) / Fold change /veh IL23R (11737362_x_at) / RFU TMEM51 (11727254_a_at) / Fold change /veh TMEM51 (11727254_a_at) / RFU PIWIL2 (11732686_x_at) / Fold change /veh PIWIL2 (11732686_x_at) / RFU ORM1 (11744905_x_at) / Fold change /veh ORM1 (11744905_x_at) / RFU CCDC152 (11743942_at) / Fold change /veh CCDC152 (11743942_at) / RFU ECM1 (11717891_a_at) / Fold change /veh ECM1 (11717891_a_at) / RFU IL23R (11748794_a_at) / Fold change /veh IL23R (11748794_a_at) / RFU TNFAIP8L3 (11732012_x_at) / Fold change /veh TNFAIP8L3 (11732012_x_at) / RFU MBOAT4 (11741988_at) / Fold change /veh MBOAT4 (11741988_at) / RFU 11764193_at / Fold change /veh 11764193_at / RFU TMEM53 (11763286_at) / Fold change /veh TMEM53 (11763286_at) / RFU MAGEB2 (11727129_at) / Fold change /veh MAGEB2 (11727129_at) / RFU TMEM200A (11744735_a_at) / Fold change /veh TMEM200A (11744735_a_at) / RFU CCDC152 (11751479_a_at) / Fold change /veh CCDC152 (11751479_a_at) / RFU FAM211A (11726209_a_at) / Fold change /veh FAM211A (11726209_a_at) / RFU RGS16 (11746705_a_at) / Fold change /veh RGS16 (11746705_a_at) / RFU VCAN (11755009_s_at) / Fold change /veh VCAN (11755009_s_at) / RFU RHOB (11743442_s_at) / Fold change /veh RHOB (11743442_s_at) / RFU RGS16 (11720943_a_at) / Fold change /veh RGS16 (11720943_a_at) / RFU RGS16 (11720944_at) / Fold change /veh RGS16 (11720944_at) / RFU, VPS4B / Fold change vs veh, VPS4B / RFU, CREB1 / Fold change vs veh, CREB1 / RFU, DNAJC13 / Fold change vs veh, DNAJC13 / RFU, GNAQ / Fold change vs veh, GNAQ / RFU, CDK5R1 / Fold change vs veh, CDK5R1 / RFU, ZRANB3 / Fold change vs veh, ZRANB3 / RFU, CUL4A / Fold change vs veh, CUL4A / RFU, CCNY / Fold change vs veh, CCNY / RFU, UFL1 / Fold change vs veh, UFL1 / RFU, COG3 / Fold change vs veh, COG3 / RFU, DIAPH2 / Fold change vs veh, DIAPH2 / RFU, SKA2 / Fold change vs veh, SKA2 / RFU, AFF3 / Fold change vs veh, AFF3 / RFU, LMF1 / Fold change vs veh, LMF1 / RFU, IPO11 / Fold change vs veh, IPO11 / RFU, DFFB / Fold change vs veh, DFFB / RFU, FOXP1 / Fold change vs veh, FOXP1 / RFU, CARD8 / Fold change vs veh, CARD8 / RFU, STRN3 / Fold change vs veh, STRN3 / RFU, ADK / Fold change vs veh, ADK / RFU, RASSF2 / Fold change vs veh, RASSF2 / RFU, WIPF1 / Fold change vs veh, WIPF1 / RFU, LARP1B / Fold change vs veh, LARP1B / RFU, RASA1 / Fold change vs veh, RASA1 / RFU, RB1 / Fold change vs veh, RB1 / RFU, PPFIA1 / Fold change vs veh, PPFIA1 / RFU, MAT2A / Fold change vs veh, MAT2A / RFU, CCT5 / Fold change vs veh, CCT5 / RFU, WDR92 / Fold change vs veh, WDR92 / RFU, CUX1 / Fold change vs veh, CUX1 / RFU, TTC7A / Fold change vs veh, TTC7A / RFU, TMEM135 / Fold change vs veh, TMEM135 / RFU, DEPTOR / Fold change vs veh, DEPTOR / RFU, CPM / Fold change vs veh, CPM / RFU, DNAJB6 / Fold change vs veh, DNAJB6 / RFU, CACNA2D3 / Fold change vs veh, CACNA2D3 / RFU, DTX4 / Fold change vs veh, DTX4 / RFU, TFCP2 / Fold change vs veh, TFCP2 / RFU, GMCL1 /// GMCL1P1 / Fold change vs veh, GMCL1 /// GMCL1P1 / RFU, AEBP2 / Fold change vs veh, AEBP2 / RFU, SNHG1 /// SNORD22 /// SNORD25 /// SNORD26 /// SNORD27 /// SNORD28 /// SNORD29 /// SNORD31 / Fold change vs veh, SNHG1 /// SNORD22 /// SNORD25 /// SNORD26 /// SNORD27 /// SNORD28 /// SNORD29 /// SNORD31 / Fold change (Aza/veh), C12orf56 (ProbeSet 11735607_a_at) / Fold change (ACY-1035/veh), C12orf56 (ProbeSet 11735607_a_at) / Fold change (Aza/veh), FGFR1OP (ProbeSet 11751329_s_at) / Fold change (ACY-1035/veh), FGFR1OP (ProbeSet 11751329_s_at) / Fold change (Aza/veh), VPS36 (ProbeSet 11739960_a_at) / Fold change (ACY-1035/veh), VPS36 (ProbeSet 11739960_a_at) / RFU SYPL1 (11715823_x_at) / Fold change /veh SYPL1 (11715823_x_at) / RFU IGFBP7 (11715501_s_at) / Fold change /veh IGFBP7 (11715501_s_at) / RFU REEP3 (11722064_at) / Fold change /veh REEP3 (11722064_at) / RFU IGLL1 (11728026_x_at) / Fold change /veh IGLL1 (11728026_x_at): dose or concentration left out as unconfirmed
Settings: ProbeSet 11731583_a_at; LIST D

Nc1ncn([C@@H]2O[C@H](CO)[C@@H](O)[C@H]2O)c(=O)n1 [azacitidine] was tested, and the “Fold change vs veh, LARP1B” value was 0.75.
